This note sets out measurements from patent publication US20140148498A1, “METHODS AND COMPOSITIONS FOR THE TREATMENT OF MARFAN SYNDROME AND ASSOCIATED DISORDERS” (THE JOHNS HOPKINS UNIVERSITY, priority 2011, published 2014).

For assay [1], the system named is ERK1/2. In words: Western blot of aortic root and proximal ascending aorta: ERK1/2 activation (Examples 4-5). The assay is classed as in vivo, mice. The source says:
(§1) All mice were cared for under strict compliance with the Animal Care and Use Committee of the Johns Hopkins University School of Medicine. The Fbn1^C1039G/+ and AT2KO lines were maintained n a pure C57BL/6 background (backcrossed for greater than 9 generations), allowing for valid comparisons. In order to further accommodate the potential for temporal- or background-specified variation, all comparisons were made between contemporary littermates when possible. The AT21C0 mice were obtained as a generous gift from Dr. Inagami (T. Ichiki et al., Nature 377, 748 (1995)). The Agtr2 gene resides on the X chromosome and therefore we used either male mice carrying the mutated allele (who are hemizygous) or homozygous females, both of which have been previously shown to be functionally null for the AT2 receptor (T. Ichiki et al., Nature 377, 748 (1995)). Mice were sacrificed with an inhalation overdose of halothane (Sigma-Aldrich, St. Louis). Mice underwent immediate laparotomy, descending abdominal aortic transection, and PBS (pH 7.4) was infused through the right and left ventricles to flush out the blood. Mice that were analyzed for Western Blot analysis had their proximal ascending aortas (root to right brachiocephalic trunk) immediately dissected out, flash frozen in liquid nitrogen and stored at −80d until further processing. Mice that were analyzed for aortic histology had latex injected under low pressure into the left ventricular apex until it was visible in the descending abdominal aorta. Mice that were analyzed for lung histology had their trachea intubated with a 20-gauge blunted needle, and 0.5% agar was infused under a low and constant pressure to gradually inflate the lungs. […]
(§2) Mouse aortic root and ascending aortas (aortic root excluding the aortic valve to origin of right brachiocephalic trunk) were harvested, snap-frozen in liquid nitrogen and stored at −80° C. until processed. […] Equal protein loading of samples was determined by a protein assay (BioRad, CA), and confirmed by probing with antibodies against β-Actin or GAPDH (Sigma, Mo.). […]
For orientation: In western blotting, separated proteins are transferred to a membrane and probed.

In assay [2] the test system is Fbn1^C1039G/+ mice. In words: Aortic wall architecture score (VVG staining). Type of assay: in vivo. As to conditions: FIG. 9. As to the method: Latex-infused ascending aortas were transected just above the level of the aortic valve, and 2-3 mm transverse sections were mounted in 4% agar prior to paraffin fixation. Five micrometer aortic sections underwent Verhoeff-van Giesen (VVG) staining and were imaged at 40× magnification, using a Nikon Eclipse E400 microscope. Wall thickness of the aortic media was measured by a single blinded observer at 16 different locations around the most proximal ascending aortic ring and averaged. Wall architecture of 4 representative sections for each mouse was assessed by the same 3 blinded observers and graded on an arbitrary scale of 1 (indicating no breaks in the elastic fiber) to 5 (indicating diffuse fragmentation), and the results were averaged. Elastic fiber content was quantified in four separate representative images of each section of the most proximal ascending aorta by a single blinded observer, using NIS Elements Advanced Research (Nikon, Japan). The aortic media and the elastic fibers were individually outlined and their areas calculated. The respective areas were averaged from all the images of a given aortic section and the ratio of elastic fiber content to total aortic media was determined. Individual lobes of the lungs were mounted in 4% agar and fixed in paraffin. Five micrometer lung sections underwent hematoxylin and eosin staining and were imaged at 10× magnification, using a Nikon Eclipse E400 microscope. Five fields were analyzed for each lobe of each lung by a single blinded observer, and a mean linear intercept was calculated using a previously described method (J. P. Habashi et al., Science 312, 117 (2006); and E. R. Neptune et al., Nat. Genet. 33, 407 (2003)).

Assay [3] has as its system AT2KO:Fbn1^C1039G/+ mice. In words: Systolic blood pressure by tail cuff, MFS mice lacking AT2. As to conditions: AT2KO:Fbn1^C1039G/+ versus Fbn1^C1039G/+ mice, FIG. 8. The assay is classed as in vivo. On the procedure: (§3) Mice were started on medication at 8 weeks of age and continued for 7 months. Losartan was dissolved in drinking water and filtered to reach a concentration of 0.6 g/L, giving an estimated daily dose of 40-60 mg/kg/day. Enalapril was dissolved in drinking water and filtered to reach a final concentration of 0.15 g/L, giving an estimated daily dose of 10-15 mg/kg/day. […] Spironolactone was dissolved in drinking water and filtered to give an estimated dose of 20 mg/kg/day, a dose previously shown to have in-vivo phenotypic benefit in cardiovascular disease states (S. Sakurabayashi-Kitade et al., Atherosclerosis 206, 54 (2009)). Placebo-treated animals received regular drinking water. Blood pressures were analyzed by taking 20 tail cuff blood pressures per day over 5 days in each mouse to habituate the mice to the tail cuff pressure system, and the blood pressures obtained on the last day were averaged. At least 4 mice for each treatment group were analyzed.

Assay [4] concerns Smad2. Nature of the assay: Western blot of aortic root and proximal ascending aorta: Smad2 activation (Examples 4-5). Type of assay: in vivo, mice. The source says: All mice were cared for under strict compliance with the Animal Care and Use Committee of the Johns Hopkins University School of Medicine. The Fbn1^C1039G/+ and AT2KO lines were maintained n a pure C57BL/6 background (backcrossed for greater than 9 generations), allowing for valid comparisons. In order to further accommodate the potential for temporal- or background-specified variation, all comparisons were made between contemporary littermates when possible. The AT21C0 mice were obtained as a generous gift from Dr. Inagami (T. Ichiki et al., Nature 377, 748 (1995)). The Agtr2 gene resides on the X chromosome and therefore we used either male mice carrying the mutated allele (who are hemizygous) or homozygous females, both of which have been previously shown to be functionally null for the AT2 receptor (T. Ichiki et al., Nature 377, 748 (1995)). Mice were sacrificed with an inhalation overdose of halothane (Sigma-Aldrich, St. Louis). Mice underwent immediate laparotomy, descending abdominal aortic transection, and PBS (pH 7.4) was infused through the right and left ventricles to flush out the blood. Mice that were analyzed for Western Blot analysis had their proximal ascending aortas (root to right brachiocephalic trunk) immediately dissected out, flash frozen in liquid nitrogen and stored at −80d until further processing. Mice that were analyzed for aortic histology had latex injected under low pressure into the left ventricular apex until it was visible in the descending abdominal aorta. Mice that were analyzed for lung histology had their trachea intubated with a 20-gauge blunted needle, and 0.5% agar was infused under a low and constant pressure to gradually inflate the lungs. The trachea was then tied-off using vicryl and the needle was removed. Mice were fixed for 24 hours in 10% buffered formalin, after which the heart, aorta and lungs were removed and stored in 70% ethanol.
Mouse aortic root and ascending aortas (aortic root excluding the aortic valve to origin of right brachiocephalic trunk) were harvested, snap-frozen in liquid nitrogen and stored at −80° C. until processed. Protein was extracted using the reagents and protocol from a Total Protein Extraction Kit containing protease inhibitor and Protein Phosphatase Inhibitor Cocktail (Millipore, MA). Aortas were homogenized using a pellet pestle motor (Kimble-Kontes, NJ) as per the extraction kit protocol. […] Equal protein loading of samples was determined by a protein assay (BioRad, CA), and confirmed by probing with antibodies against β-Actin or GAPDH (Sigma, Mo.). […] Blots were then washed in PBS-T, developed using SuperSignalWest HRP substrate (Pierce Scientific, IL), exposed to BioMax Scientific Imaging Film (Sigma, Mo.) and quantified using Imaged analysis software (NIH, MD).

Assay [5] has as its system Fbn1^C1039G/+ mice. Nature of the assay: Systolic blood pressure by tail cuff. The assay is classed as in vivo. As to conditions: compared to placebo-treated animals, FIG. 8. On the procedure: as §3
The test system of assay [6] is p38. In words: Western blot of proximal ascending aorta: p38 activation (Examples 4-5). The assay is classed as in vivo, mice.
Source text: as §1, §2

Setting [7] is: treated AT2KO:Fbn1^C1039G/+ versus treated Fbn1^C1039G/+ mice, FIG. 14.

The structures appear in SMILES notation. “Also recorded” adds a separate entry of the source.

Take `CCCCc1nc(Cl)c(CO)n1Cc1ccc(-c2ccccc2-c2nn[nH]n2)cc1` [losartan]: the ERK1/2 activation entry is recorded as “ability to inhibit ERK1/2 activation is lost; also recorded: reduced ability to lower ERK1/2 activation; also recorded: loses its ability to decrease ERK1/2 activation” in assay [1] (AT2KO:Fbn1^C1039G/+ mice, FIG. 10C and 14); “reduced it to WT levels; also recorded: reduced ERK1/2 activation to levels indistinguishable from WT littermates” in assay [1] (Fbn1^C1039G/+ mice, FIG. 10B). Further, the “Aortic wall architecture score” value in assay [2] is “significantly more beneficial than both placebo and enalapril treatment; also recorded: significant improvement”. The Systolic blood pressure result in assay [3] is given as “no difference in blood pressure between the groups; also recorded: lowered blood pressure equally”; in assay [5] it was “equal reduction in systolic blood pressure”. The Smad2 activation result in assay [4] (Fbn1^C1039G/+ mice, FIG. 10B) is on record as “significantly decreased Smad2 activation”; in assay [4] (setting [7]) it was “no significant change; also recorded: no significant difference”. The p38 activation entry in assay [6] (Fbn1^C1039G/+ mice, FIG. 13) is “do not affect p38 activation; also recorded: neither had any effect”; in assay [6] (setting [7]), “no significant change; also recorded: no significant difference”.
